The first test concerns the target T1, human V3 receptor (Homo sapiens, UniProt P47901).
T1 construct: expressed in transfected cells
T1 sequence (P47901 1-424): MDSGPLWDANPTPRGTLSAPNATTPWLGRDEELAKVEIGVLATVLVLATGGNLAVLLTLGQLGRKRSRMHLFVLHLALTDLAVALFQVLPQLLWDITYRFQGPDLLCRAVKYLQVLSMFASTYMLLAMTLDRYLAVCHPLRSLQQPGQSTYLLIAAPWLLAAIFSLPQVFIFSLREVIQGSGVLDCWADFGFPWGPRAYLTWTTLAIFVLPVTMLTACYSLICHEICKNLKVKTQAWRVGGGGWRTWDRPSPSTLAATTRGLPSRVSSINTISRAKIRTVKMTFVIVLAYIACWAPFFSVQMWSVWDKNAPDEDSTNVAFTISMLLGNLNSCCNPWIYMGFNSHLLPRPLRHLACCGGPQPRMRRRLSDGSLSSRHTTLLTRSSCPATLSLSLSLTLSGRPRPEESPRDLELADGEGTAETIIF
As to the kind of experiment: [3H]AVP binding to CHO cells stably expressing the human V3 receptor. Particulars: [3H]AVP 2.5x10^-9 mol/L. On the procedure: Chinese Hamster Ovary (CHO) cells stably expressing the human V3 receptor were incubated to equilibrium with the test compound (at a final assay concentration of 10^−10 mol.L^−1 to 10^−5 mol.L^−1) and [^3H]AVP (at a final assay concentration of 2.5×10^−9 mol.L^−1). […] After washing with ice-cold phosphate buffered saline (PBS), scintillation fluid was added and the plates counted on a Topcount NXT apparatus.
A sigmoidal dose response curve (non-linear regression, variable slope) was plotted as concentration of test compound (mol.L^−1) against percentage specific binding of [^3H]AVP and a Ki value was calculated. Each determination was carried out in triplicate and repeated on at least 3 separate occasions
Regarding `COc1cccc(-c2cc3ccc(OC[C@@H](C)CN4CCCCC4)cc3c(=O)n2CC(=O)NC(C)C)c1` [EXAMPLE 14, N-Isopropyl-2-[3-(3-methoxyphenyl)-7-((S)-2-methyl-3-piperidin-1-ylpropoxy)-1-oxo-1H-isoquinolin-2-yl]acetamide], the Ki (commonly the dissociation constant of the complex between target and ligand, obtained from inhibition or displacement) was 100 to 1000 nM. Turning to `CC(C)NC(=O)Cn1c(-c2ccccc2)cc2ccc(OCCCN3CCCCC3)cc2c1=O` [EXAMPLE 26, N-Isopropyl-2-[1-oxo-3-phenyl-7-(3-piperidin-1-ylpropoxy)-1H-isoquinolin-2-yl]acetamide], the Ki is less than 10 nM. For `CC(C)NC(=O)Cn1c(-c2cccc(F)c2)cc2ccc(OC[C@@H](C)CN(C)C)cc2c1=O` [EXAMPLE 3, 2-[7-((S)-3-Dimethylamino-2-methylpropoxy)-3-(3-fluorophenyl)-1-oxo-1H-isoquinolin-2-yl]-N-isopropylacetamide], the inhibition constant Ki was 10 to 100 nM. `CC(C)(C)NC(=O)Cn1c(-c2ccc(F)c(Cl)c2)cc2ccc(OCCCN3CCCC3)cc2c1=O` [EXAMPLE 28, N-tert-Butyl-2-[3-(3-chloro-4-fluorophenyl)-1-oxo-7-(3-pyrrolidin-1-ylpropoxy)-1H-isoquinolin-2-yl]acetamide] showed a Ki of 100 to 1000 nM.

`COc1cccc(-c2cc3ccc(OCCCN4CCCC4)cc3c(=O)n2CC(=O)NC(C)(C)C)n1` [EXAMPLE 23, N-tert-Butyl-2-[3-(6-methoxypyridin-2-yl)-1-oxo-7-(3-pyrrolidin-1-ylpropoxy)-1H-isoquinolin-2-yl]acetamide] yielded a Ki of 10 to 100 nM. On the same count and under the same terms, under `CC(C)NC(=O)Cn1c(-c2cccc(Cl)c2)cc2ccc(-c3cccc(CN4CCCCC4)c3)cc2c1=O` [EXAMPLE 35, 2-[3-(3-Chlorophenyl)-1-oxo-7-(3-piperidin-1-ylmethylphenyl)-1H-isoquinolin-2-yl]-N-isopropylacetamide] stands 10 to 100 nM.

A further test deals with T2, V3 receptor (Rattus norvegicus, UniProt P48974).
T2 construct: Anterior pituitary corticotrophs were prepared from adult female Sprague-Dawley rats; endogenous in cells; host or cells: primary anterior pituitary corticotrophs from adult female Sprague-Dawley rats
T2 sequence (P48974 1-425): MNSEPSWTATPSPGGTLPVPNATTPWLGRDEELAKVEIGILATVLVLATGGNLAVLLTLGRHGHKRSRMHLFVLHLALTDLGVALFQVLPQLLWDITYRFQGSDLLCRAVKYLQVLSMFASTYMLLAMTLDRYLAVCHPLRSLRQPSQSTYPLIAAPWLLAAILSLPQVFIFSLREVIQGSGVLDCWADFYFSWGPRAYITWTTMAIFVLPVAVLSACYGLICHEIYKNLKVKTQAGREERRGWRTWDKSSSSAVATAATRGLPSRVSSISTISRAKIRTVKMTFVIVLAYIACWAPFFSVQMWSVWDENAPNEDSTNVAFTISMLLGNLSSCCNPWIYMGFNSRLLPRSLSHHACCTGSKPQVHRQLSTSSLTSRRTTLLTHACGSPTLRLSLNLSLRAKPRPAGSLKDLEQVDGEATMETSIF
As to the kind of experiment: Block of AVP-induced ACTH release from isolated rat anterior pituitary corticotrophs. The following applies: ACTH release after 3x10^-9 mol/L AVP for 120 minutes; ELISA; read-out: V3 receptor antagonism in isolated rat anterior pituitary cells. Format: cell-based. On the procedure:
The ability of compounds of the invention to act as V3 antagonists in a physiologically relevant system was determined by measuring their ability to block the release of adrenocorticotropic hormone (ACTH) from anterior pituitary corticotrophs in response to treatment with arginine vasopressin (AVP).
Anterior pituitary corticotrophs were prepared from adult female Sprague-Dawley rats and seeded into 48 well plates. The cells were cultured for 4 days prior to exposure to compound. Test compounds were prepared at 10^−5 mol.L^−1 in 100% DMSO. Cells were exposed to a dose response of test compounds for 20 minutes (10^−8 mol.L^−1−10^−5 mol.L^−1). The final concentration of DMSO in the assay was kept constant at 0.3%. The cells were then exposed to 3×10^−9 mol.L^−1 AVP for 120 minutes. Supernatants were harvested and stored at −20° C. ACTH levels were subsequently measured by ELISA following the manufacturer's instructions (Immunodiagnostic systems, UK (Cat No. DX-SDX018)). Each treatment was carried out in quadruplicate and a mean value obtained for the amount of ACTH released. The degree of antagonism was then calculated as a percentage of the amount of ACTH released by agonist alone after adjustment for basal levels of ACTH. A pIC50 was calculated by fitting a Sigmoidal dose response (variable slope) curve with a non-linear (fit) to the data using the software package GraphPad prism. […]
For orientation: An ELISA detects its analyte on a solid surface through an enzyme-linked reagent.
`CC(C)NC(=O)Cn1c(-c2cccc(Cl)c2)cc2ccc(OC[C@@H](C)CN3CCCC3)cc2c1=O` [EXAMPLE 1, 2-[3-(3-Chlorophenyl)-7-((S)-2-methyl-3-pyrrolidin-1-ylpropoxy)-1-oxo-1H-isoquinolin-2-yl]-N-isopropylacetamide]: the IC50 was in the range of 100 to 1000 nM.

As to `CC(C)(C)NC(=O)Cn1c(-c2cccc(Cl)c2)cc2ccc(OCCCN3CCC(O)CC3)cc2c1=O` [EXAMPLE 17, N-tert-Butyl-2-{3-(3-Chlorophenyl)-7-[3-(4-hydroxypiperidin-1-yl)-propoxy]-1-oxo-1H-isoquinolin-2-yl}-acetamide], the IC50 lay in the range of 10 to 100 nM.

These data come from patent publication US7906504B2, “2-(1-oxo-1H-isoquinolin-2-yl)acetamide derivatives” (N.V. Organon, priority 2006, dated 2011).
